Assay results reported in patent US8178506B2, “Oligomeric compounds and compositions for use in modulation of small non-coding RNAs” (Regulus Therapeutics Inc., priority 2003, dated 2012).
In the oligonucleotide strings, read from the 5' end, every base follows the letter of its sugar. An asterisk marks phosphorothioate; unmarked linkages are phosphodiester. Other units and linkages are bracketed, terminal groups are in braces. A string of capitals states the bases alone. e = 2'-O-(2-methoxyethyl) (MOE); [5mC] = 5-methylcytosine

Columns and labels:
Assay type in all cases: cell-based, human
[1] = test system: HSL; experiment: HSL mRNA expression in adipocytes (real-time PCR)
[2] = test system: adipocytes; experiment: Triglyceride accumulation assay in adipocytes
[3] = test system: PPARγ; experiment: PPARγ mRNA expression in adipocytes (real-time PCR)
[4] = test system: Glut4; experiment: Glut4 mRNA expression in adipocytes (real-time PCR)
[5] = test system: aP2; experiment: aP2 mRNA expression in adipocytes (real-time PCR); details: for aP2 mRNA: differentiating adipocytes transfected with oligomeric compound, Table 75; for AP2 mRNA: Table 18, differentiating adipocytes, control = treatment with ISIS 342673
[6] = differentiating adipocytes transfected with oligomeric compound, Table 75
[7] = Table 18, differentiating adipocytes, control = treatment with ISIS 342673

| Substance | HSL mRNA [1, 6] | TG (triglyceride accumulation) [2, 6] | PPAR gamma mRNA [3, 6] | GLUT4 mRNA [4, 6] | aP2 mRNA [5] | HSL mRNA [1, 7] | TG (triglyceride accumulation) [2, 7] | PPAR gamma mRNA [3, 7] | GLUT4 mRNA [4, 7] | AP2 mRNA [5] |
| --- | --- | --- | --- | --- | --- | --- | --- | --- | --- | --- |
| 348116 (UUCGCCCUCUCAACCCAGCUUUU; anti-miR; all 2'-MOE, all phosphorothioate, methylation of C and T or U not given here) [compound 348116] | 58 percentage of untreated control (UTC) | 43 percentage of untreated control (UTC) | 76 percentage of untreated control (UTC) | 48 percentage of untreated control (UTC) | 79 percentage of untreated control (UTC) |  |  |  |  |  |
| 346686 (CUUCAGUUAUCACAGUACUGUA; all 2'-MOE, all phosphorothioate, methylation of C and T or U not given here) [compound 346686] | 80 percentage of untreated control (UTC) | 73 percentage of untreated control (UTC) | 83 percentage of untreated control (UTC) | 73 percentage of untreated control (UTC) | 83 percentage of untreated control (UTC) |  |  |  |  |  |
| 328107 (antisense e[5mC]*eT*eG*eT*eG*eA*e[5mC]*eT*eT*e[5mC]*eT*e[5mC]*eT*eA*eT*e[5mC]*eT*eG*e[5mC]*e[5mC]*eT) [compound 328107] | 55 percentage of untreated control (UTC) | 51 percentage of untreated control (UTC) | 71 percentage of untreated control (UTC) | 52 percentage of untreated control (UTC) | 68 percentage of untreated control (UTC) | 61.0 percentage of control | 66.7 percentage of control | 79.3 percentage of control | 72.5 percentage of control | 67.5 percentage of control |
| 340343 (antisense ACAGGAGUCUGAGCAUUUGA; all 2'-MOE, all phosphorothioate, methylation of C and T or U not given here) [compound 340343] | 46 percentage of untreated control (UTC) | 35 percentage of untreated control (UTC) | 59 percentage of untreated control (UTC) | 33 percentage of untreated control (UTC) | 60 percentage of untreated control (UTC) |  |  |  |  |  |
| 348124 (CACAAAUUCGGUUCUACAGGGUA; anti-miR; all 2'-MOE, all phosphorothioate, methylation of C and T or U not given here) [compound 348124] | 43 percentage of untreated control (UTC) | 53 percentage of untreated control (UTC) | 63 percentage of untreated control (UTC) | 41 percentage of untreated control (UTC) | 59 percentage of untreated control (UTC) |  |  |  |  |  |
| 341799 (antisense ACCUAAUAUAUCAAACAUAUCA; all 2'-MOE, all phosphorothioate, methylation of C and T or U not given here) [compound 341799] | 103 percentage of untreated control (UTC) | 98 percentage of untreated control (UTC) | 89 percentage of untreated control (UTC) | 89 percentage of untreated control (UTC) | 101 percentage of untreated control (UTC) |  |  |  |  |  |
| 328090 (antisense eA*eT*eT*eA*eA*eA*eA*eA*eG*eT*e[5mC]*e[5mC]*eT*e[5mC]*eT*eT*eG*e[5mC]*e[5mC]*e[5mC]*eA) [compound 328090] | 81 percentage of untreated control (UTC) | 128 percentage of untreated control (UTC) | 95 percentage of untreated control (UTC) | 86 percentage of untreated control (UTC) | 68 percentage of untreated control (UTC) |  |  |  |  |  |
| 328092 (antisense eG*eG*eT*eA*eG*eG*eT*eG*eG*eA*eA*eT*eA*e[5mC]*eT*eA*eT*eA*eA*e[5mC]*eA) [compound 328092] | 80 percentage of untreated control (UTC) | 134 percentage of untreated control (UTC) | 86 percentage of untreated control (UTC) | 78 percentage of untreated control (UTC) | 74 percentage of untreated control (UTC) |  |  |  |  |  |
| 344612 (ACGGAAGGGCAGAGAGGGCCAG; anti-miR; all 2'-MOE, all phosphorothioate, methylation of C not given here) [compound 344612] | 59 percentage of untreated control (UTC) | 69 percentage of untreated control (UTC) | 62 percentage of untreated control (UTC) | 40 percentage of untreated control (UTC) | 72 percentage of untreated control (UTC) |  |  |  |  |  |
| 328108 (antisense eA*eA*eA*e[5mC]*eT*eT*eG*eT*eT*eA*eA*eT*eT*eG*eA*e[5mC]*eT*eG*eT*e[5mC]*eA) [compound 328108] | 75 percentage of untreated control (UTC) | 79 percentage of untreated control (UTC) | 72 percentage of untreated control (UTC) | 65 percentage of untreated control (UTC) | 87 percentage of untreated control (UTC) | 90.1 percentage of control | 89.6 percentage of control | 84.0 percentage of control | 94.9 percentage of control | 83.7 percentage of control |
| 346919 (CUACCUGCACGAACAGCACUUUG; all 2'-MOE, all phosphorothioate, methylation of C and T or U not given here) [compound 346919] | 45 percentage of untreated control (UTC) | 44 percentage of untreated control (UTC) | 65 percentage of untreated control (UTC) | 50 percentage of untreated control (UTC) | 64 percentage of untreated control (UTC) |  |  |  |  |  |
| 328104 (antisense eT*eA*eT*eG*eA*eT*eA*eG*e[5mC]*eT*eT*e[5mC]*e[5mC]*e[5mC]*e[5mC]*eA*eT*eG*eT*eA*eA) [compound 328104] | 81 percentage of untreated control (UTC) | 64 percentage of untreated control (UTC) | 73 percentage of untreated control (UTC) | 83 percentage of untreated control (UTC) | 94 percentage of untreated control (UTC) | 98.2 percentage of control | 122.6 percentage of control | 90.4 percentage of control | 119.1 percentage of control | 102.2 percentage of control |
| 341791 (antisense GCUUCCAGUCGAGGAUGUUUACA; all 2'-MOE, all phosphorothioate, methylation of C and T or U not given here) [compound 341791] | 72 percentage of untreated control (UTC) | 50 percentage of untreated control (UTC) | 75 percentage of untreated control (UTC) | 47 percentage of untreated control (UTC) | 80 percentage of untreated control (UTC) |  |  |  |  |  |
| 328100 (antisense eA*eA*eT*e[5mC]*eT*e[5mC]*eT*eG*e[5mC]*eA*eG*eG*e[5mC]*eA*eA*eA*eT*eG*eT*eG*eA) [compound 328100] | 49 percentage of untreated control (UTC) | 20 percentage of untreated control (UTC) | 48 percentage of untreated control (UTC) | 39 percentage of untreated control (UTC) | 47 percentage of untreated control (UTC) | 72.0 percentage of control | 71.5 percentage of control | 66.7 percentage of control | 74.2 percentage of control | 61.9 percentage of control |
| 328097 (antisense eT*eG*eT*e[5mC]*eA*eG*eA*eT*eA*eA*eA*e[5mC]*eA*eG*eA*eG*eT*eG*eG*eA*eA) [compound 328097] | 54 percentage of untreated control (UTC) | 65 percentage of untreated control (UTC) | 63 percentage of untreated control (UTC) | 62 percentage of untreated control (UTC) | 48 percentage of untreated control (UTC) |  |  |  |  |  |
| 328103 (antisense e[5mC]*e[5mC]*e[5mC]*eA*eA*eT*eA*eT*e[5mC]*eA*eA*eA*e[5mC]*eA*eT*eA*eT*e[5mC]*eA) [compound 328103] | 87 percentage of untreated control (UTC) | 113 percentage of untreated control (UTC) | 83 percentage of untreated control (UTC) | 86 percentage of untreated control (UTC) | 96 percentage of untreated control (UTC) | 82.5 percentage of control | 110.2 percentage of control | 74.3 percentage of control | 94.3 percentage of control | 83.2 percentage of control |
| 346689 (CAUCAUUACCAGGCAGUAUUAGAG; all 2'-MOE, all phosphorothioate, methylation of C and T or U not given here) [compound 346689] | 63 percentage of untreated control (UTC) | 59 percentage of untreated control (UTC) | 64 percentage of untreated control (UTC) | 45 percentage of untreated control (UTC) | 79 percentage of untreated control (UTC) |  |  |  |  |  |
